Test results as given in patent publication US20090180956A1, “DIAGNOSTIC FOR EVALUATING GASTRIC EVACUATION FUNCTION AND/OR SMALL INTESTINAL ABSORPTION FUNCTION” (priority 2006, published 2009).
Where two headings read alike, the source gives them in different places. Blank lines part the entries; values can stand above or below the molecule they belong to.

Experiments:
[1] = 13C-labeled sodium acetate breath test, diabetic model rats (nSTZ group) versus control group; conditions: 10 mg/ml/kg femoral vein
Protocol: (§2) Briefly, STZ was administered to 2-day postnatal rats subcutaneously at a dose of 90 mg/kg. STZ was dissolved in citrate buffer (pH 4.5) in advance, and administration was completed within 5 minutes after the dissolving. Two days thereafter, a blood sample was collected from the heart and subjected to measurement of casual plasma glucose with Terumo Mediace (blood glucose measuring set). Individuals showing a level of 275 mg/dl or more were selected.
(§3) The time course of the increase ratio of ^13C concentration (Δ^13C (‰)) in exhaled CO2 after administration was examined for 20 minutes, and plotted every 5 minutes.

[2] = rat, in vivo, 2000 mg/kg; cited from earlier work
[3] = 2 mg/ml/kg into the duodenum
Protocol: (§1) Briefly, the breath was collected at a rate of about 100 to 300 ml/min using a stroke pump (Variable Stroke Pump VS-500; Shibata Kagaku Kogyo), and the CO2 concentration therein was maintained at about 3%. A Perma Pure Drier (MD-050-12P; Perma Pure INC.) was set between the rat holder and the stroke pump to remove moisture from the breath. When the CO2 concentration was stabilized, the rat under anesthesia was subjected to a laparotomy. After ligation of the pylorus, [1,4-^13C]-succinic acid solution was injected into the duodenum with an injection syringe (1 ml) to thereby achieve administration into the duodenum. A breath sample ([…]) collected with the syringe was sealed in a vacuum vial (10 ml) and subjected to automated analysis by GC-MS (Breath MAT) [FinniganMAT]. Δ^13C (‰) was calculated from δ^13C values which are ^13C values of the breath sample (i.e. differences from the standard substance PDB) using the following formula.
Falling out of small intestinal villi was induced in Wistar male rats (9 week-old; n=4; Nippon Charles River) by repeatedly injecting injectable methotrexate (MTX; Takeda Chemical Industries) dissolved in physiological saline between the back and the skull subcutaneously at 2.5 mg/kg/day (see J. Nutr. Vol. 126, p. 2519 (1996); Scand. J. Gastroenterol. Vol. 39 p. 1015 (2004)). The conditions of the repeated administration were 3 day administration, 2 day interval and 3 day administration (total administration period: 6 days) (MTX administration group; n=4). Non-administration group (n=2) was also tested as control group.
On day 9 after the start of MTX administration, [1,4-^13C]-succinic acid (ICON) was administered into the duodenum of overnight-fasted rats under anesthesia at 2 mg/ml/kg to perform a breath test.

[4] = 4 mg/ml/kg femoral vein
Protocol: as §2, §3

[5] = 2 mg/ml/kg into the duodenum; remark: listed apart in the source
Protocol: Overnight-fasted Wistar male rats (8 week-old; Nippon Charles River) were subjected to a laparotomy under anesthesia and treated as follows: (1) ligated at 3 cm from the pylorus (n=1), (2) ligated at 6 cm from the pylorus (n=1), and (3) not ligated (no treatment) (n=2).
[1,4-^13C]-succinic acid (ICON) was administered into the duodenum upstream of the ligation at 2 mg/ml/kg. The breath after the administration was collected.
as §1
Δ^13C (‰)=(δ^13C)t min−(δ^13 C) 0 min (Formula 1)
• Apparatus: Breath MAT plus (Finnigan) • Carrier gas: He • Measured ions: m/z=44, 45, 46

SMILES: C[13C](=O)[O-].[Na+] [[1-^13C]-sodium acetate]
- increase ratio of 13C concentration (Δ13C) in exhaled CO2 ([1]; control group, at 5 minutes): 154±11 ‰
- increase ratio of 13C concentration (Δ13C) in exhaled CO2 ([1]; control group, at 20 minutes): 153±5 ‰
- increase ratio of 13C concentration (Δ13C) in exhaled CO2 ([1]; nSTZ group, at 5 minutes): 214±30 ‰
- increase ratio of 13C concentration (Δ13C) in exhaled CO2 ([1]; nSTZ group, at 20 minutes): 133±2 ‰
- difference in Δ13C between control group and nSTZ group ([1]; values at 5 minutes and at 20 minutes): Significant difference (p<0.005)

SMILES: O=C(O)CCC(=O)O [disodium succinate hexahydrate]
- abnormalities in single administration toxicity test [2]: does not cause abnormalities

- increase ratio of 13C concentration (Δ13C) in exhaled CO2 ([3]; MTX administration group, at 15 minutes): 68±37 ‰
- increase ratio of 13C concentration (Δ13C) in exhaled CO2 ([3]; control group (MTX non-administration), at 10 minutes): 154 ‰
- increase ratio of 13C concentration (Δ13C) in exhaled CO2 ([3]; control group (MTX non-administration), at 20 minutes): 81 ‰
- difference in Δ13C between control group and nSTZ group ([4]; 20 minutes breath test): no difference was observed
- increase ratio of 13C concentration (Δ13C) in exhaled CO2 ([4]; control group, at 5 minutes): 193±20 ‰
- increase ratio of 13C concentration (Δ13C) in exhaled CO2 ([4]; control group, at 20 minutes): 99±4 ‰
- increase ratio of 13C concentration (Δ13C) in exhaled CO2 ([4]; nSTZ group, at 5 minutes): 202±28 ‰
- increase ratio of 13C concentration (Δ13C) in exhaled CO2 ([4]; nSTZ group, at 20 minutes): 93±4 ‰
- increase ratio of 13C concentration (Δ13C) in exhaled CO2 ([5]; not ligated rats, at 6 minutes): 130 ‰
- increase ratio of 13C concentration (Δ13C) in exhaled CO2 ([5]; not ligated rats, at 15 minutes): 95 ‰
- increase ratio of 13C concentration (Δ13C) in exhaled CO2 ([5]; rat ligated at 3 cm from the pylorus, at 4 minutes): 14 ‰
- increase ratio of 13C concentration (Δ13C) in exhaled CO2 ([5]; rat ligated at 3 cm from the pylorus, at 6 minutes): 30 ‰
- increase ratio of 13C concentration (Δ13C) in exhaled CO2 ([5]; rat ligated at 3 cm from the pylorus, at 16 minutes): 71 ‰
- increase ratio of 13C concentration (Δ13C) in exhaled CO2 ([5]; rat ligated at 6 cm from the pylorus, at 4 minutes): 33 ‰
- increase ratio of 13C concentration (Δ13C) in exhaled CO2 ([5]; rat ligated at 6 cm from the pylorus, at 6 minutes): 57 ‰
- increase ratio of 13C concentration (Δ13C) in exhaled CO2 ([5]; rat ligated at 6 cm from the pylorus, at 16 minutes): 96 ‰
SMILES: O=[13C](O)CC[13C](=O)O [[1,4-^13C]-succinic acid]
